The target of the test is T1, xanthine oxidase (XOD) (Bos taurus, UniProt P80457).
T1 construct: gene XDH; purified bovine liver XOD
As to the kind of experiment: enzyme kinetics, Lineweaver-Burk analysis with purified bovine liver XOD. In kind it is biochemical.

T1 sequence (P80457 2-1332): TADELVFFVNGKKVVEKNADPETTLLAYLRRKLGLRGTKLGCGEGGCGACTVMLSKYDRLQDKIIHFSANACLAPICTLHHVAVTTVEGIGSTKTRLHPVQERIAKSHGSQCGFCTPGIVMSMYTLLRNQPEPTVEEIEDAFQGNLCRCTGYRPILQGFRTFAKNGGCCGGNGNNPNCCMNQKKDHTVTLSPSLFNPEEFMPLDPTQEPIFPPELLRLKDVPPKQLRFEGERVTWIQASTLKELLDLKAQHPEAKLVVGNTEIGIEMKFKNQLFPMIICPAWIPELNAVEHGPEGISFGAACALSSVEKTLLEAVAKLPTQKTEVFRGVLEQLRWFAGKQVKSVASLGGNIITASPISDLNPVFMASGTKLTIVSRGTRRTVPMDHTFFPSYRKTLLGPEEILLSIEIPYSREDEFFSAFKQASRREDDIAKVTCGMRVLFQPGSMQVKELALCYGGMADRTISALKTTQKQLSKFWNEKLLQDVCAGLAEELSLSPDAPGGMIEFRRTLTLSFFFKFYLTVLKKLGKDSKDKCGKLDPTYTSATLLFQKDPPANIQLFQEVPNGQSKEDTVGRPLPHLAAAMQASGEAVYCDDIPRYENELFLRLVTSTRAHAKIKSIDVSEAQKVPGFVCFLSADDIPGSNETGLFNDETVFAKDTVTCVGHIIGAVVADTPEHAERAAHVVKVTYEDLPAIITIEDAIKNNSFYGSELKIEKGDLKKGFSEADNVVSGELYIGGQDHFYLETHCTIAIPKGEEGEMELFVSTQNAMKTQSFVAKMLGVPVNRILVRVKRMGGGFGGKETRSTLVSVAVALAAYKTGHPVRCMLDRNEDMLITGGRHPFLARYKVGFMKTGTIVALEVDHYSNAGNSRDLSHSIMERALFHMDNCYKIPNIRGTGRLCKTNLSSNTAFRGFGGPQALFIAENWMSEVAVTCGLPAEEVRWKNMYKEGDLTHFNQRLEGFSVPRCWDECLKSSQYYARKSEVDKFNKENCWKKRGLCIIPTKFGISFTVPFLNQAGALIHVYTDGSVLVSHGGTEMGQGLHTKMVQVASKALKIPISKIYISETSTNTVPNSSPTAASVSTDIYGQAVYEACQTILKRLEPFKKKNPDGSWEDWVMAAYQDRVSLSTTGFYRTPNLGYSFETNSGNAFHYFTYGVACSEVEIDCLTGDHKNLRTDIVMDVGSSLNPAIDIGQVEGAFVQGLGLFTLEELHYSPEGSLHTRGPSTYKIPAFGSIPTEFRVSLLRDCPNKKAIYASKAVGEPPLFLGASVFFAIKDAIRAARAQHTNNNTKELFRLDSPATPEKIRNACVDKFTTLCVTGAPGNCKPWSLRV

By Ki is commonly meant the dissociation constant of the complex between target and ligand, obtained from inhibition or displacement. High values mean weaker binding, low ones tighter binding. `Cn1c(=O)c2c(ncn2C)n(C)c1=O` [caffeine, 1,3,7-trimethylxanthine] yielded a Ki of 4.02 mM. That is a millimolar value.

Values taken from PMC4745685, “Caffeine affects the biological responses of human hematopoietic cells of myeloid lineage via downregulation of the mTOR pathway and xanthine oxidase activity” (Oncotarget, 2015).
